From patent US11512280B2, “Method for culturing spore-forming bacteria, and method for producing useful substance” (priority 2016, dated 2022)

Tests used:
Assay type in all cases: cell-based
[1] = system: Bacillus thuringiensis NBRC 101235 strain; assay: Culture of Bacillus thuringiensis with sporulation-inhibiting substance, 40 hours (Example 3); conditions: for Bacterial cell concentration / Spore concentration / Sporulation rate: 40 hours culture
Procedure: Using a 500 ml Erlenmeyer flask (with baffles), each 100 ml of media listed in Table 1 was prepared and then autoclave sterilization was carried out. Note that glucose was separately sterilized and aseptically mixed in order to avoid Maillard reaction.
(§1) According to the conditions of each test section, the filter-sterilized aqueous solution of each sporulation-inhibiting substance was added aseptically to each medium. According to the conditions of each test section, one loopful of Bacillus thuringiensis NBRC 101235 strain was taken from a colony grown on a nutrient agar medium, inoculated, and then cultured with shaking at 30° C. and 150 rpm for 40 hours.
(§2) Each of the thus obtained culture liquid was diluted 10-fold with sterile water, and then the bacterial cell concentration (vegetative cells and spores) and the sporulation rate (spore concentration/bacterial cell concentration) were measured using an optical microscope and a bacterial cell counter.

[2] = system: Bacillus subtilis MBI-600 strain; assay: Culture of Bacillus subtilis in Table 5 medium with sporulation-inhibiting substance, 50 hours, cell and spore counts (Example 4); conditions: for Bacterial cell concentration: carbon content 18.2 g/L
Procedure: Using a 500 ml Erlenmeyer flask (with baffles), each 100 ml of media listed in Table 5 was prepared and then autoclave sterilization was carried out. Note that glucose was separately sterilized and aseptically mixed in order to avoid Maillard reaction. According to the conditions of each test section, the filter-sterilized aqueous solution of each sporulation-inhibiting substance was added aseptically to each medium. According to the conditions of each test section, one loopful of Bacillus subtilis MBI-600 strain was taken from a colony grown on a nutrient agar medium, inoculated, and then cultured with shaking at 30° C. and 150 rpm. Fifty (50) hours after the start of culture, culture was stopped.

[3] = system: Bacillus subtilis MBI-600 strain; assay: Surfactin production by Bacillus subtilis, HPLC of culture supernatant (Example 4)
Procedure: Using a 500 ml Erlenmeyer flask (with baffles), each 100 ml of media listed in Table 5 was prepared and then autoclave sterilization was carried out. Note that glucose was separately sterilized and aseptically mixed in order to avoid Maillard reaction.
as §1, with “subtilis MBI-600” for “thuringiensis NBRC 101235”, “rpm.” for “rpm for 40 hours.”
Fifty (50) hours after the start of culture, culture was stopped.
Each of the obtained cultured liquid was centrifuged using a refrigerated centrifuge (TOMY SEIKO Co., Ltd. MX-307) at 10,000 rpm and 20° C. for 30 minutes, thereby collecting a supernatant.
To a solid-phase extraction column (Nihon Waters K.K. Oasis HLB 3 cc (400 mg) LP Extraction Cartridge), 3 ml of 0.1% TFA-containing acetonitrile was added and allowed to pass therethrough, and then 3 ml of 0.1% TFA-containing distilled water was added to pass through the column. Two ml of the thus collected centrifugal supernatant of each culture medium was added to pass through the column, 6 ml of 0.1% TFA-containing distilled water, and then 3 ml of 0.1% TFA-containing acetonitrile/distilled water (20:80, v/v) were allowed to pass through the column in sequence for washing. Next, 3 ml of 0.1% TFA-containing acetonitrile/distilled water (90:10, v/v) was allowed to pass through the column, thereby collecting an eluate. 0.1% TFA-containing acetonitrile/distilled water (90:10, v/v) was added, so that the amount of the collected solution was 4 ml, and then HPLC analysis was conducted under the following conditions.
HPLC: Agilent Technologies, Inc. 1260 Infinity […]
Each medium was compared with the authentic sample in terms of peak area detected at the elution time of 27.6 minutes and that of 28.4 minutes, thereby calculating the surfactin concentration in the culture medium.

[4] = system: Bacillus subtilis MBI-600; assay: Culture of Bacillus subtilis with sporulation-inhibiting substance, 64 hours (Example 1)
Procedure: Using a 500 ml Erlenmeyer flask (with baffles), each 100 ml of media listed in Table 1 was prepared and then autoclave sterilization was carried out. Glucose was separately sterilized and aseptically mixed in order to avoid Maillard reaction.
as §1, with “One” for “According to the conditions of each test section, one”, “subtilis MBI-600” for “thuringiensis NBRC 101235 strain”, “64” for “40”
as §2

[5] = 0.1 ppm added, 64 hours culture
[6] = 1.0 ppm added, 64 hours culture

CC[C@H]1OC(=O)[C@H](C)[C@@H](O[C@H]2C[C@@](C)(OC)[C@@H](O)[C@H](C)O2)[C@H](C)[C@@H](O[C@@H]2O[C@H](C)C[C@H](N(C)C)[C@H]2O)[C@](C)(O)C[C@@H](C)C(=O)[C@H](C)[C@@H](O)[C@]1(C)O [Erythromycin]
bacterial cell concentration and spore concentration ([1]; 0.05 ppm): tended to increase | Bacterial cell concentration ([1]; 0.05 ppm): 1.5e+09 mL⁻¹ | Spore concentration ([1]; 0.05 ppm): 1.1e+09 mL⁻¹ | Sporulation rate ([1]; 0.05 ppm): 73% | effect of inhibiting sporulation ([1]; 0.1 ppm): confirmed | Bacterial cell concentration ([1]; 0.1 ppm): 2e+09 mL⁻¹ | Spore concentration ([1]; 0.1 ppm): 3e+08 mL⁻¹ | Sporulation rate ([1]; 0.1 ppm): 16% | Spore concentration ([2]; 0.1 ppm and 0.2 ppm): tended to increase | Spore concentration ([2]; 0.1 ppm, 50 hours culture): 8e+09 mL⁻¹ | Sporulation rate ([2]; 0.1 ppm, 50 hours culture): 99% | Bacterial cell concentration ([2]; 0.1 ppm, 50 hours culture): 8.1e+09 mL⁻¹ | Spore concentration ([2]; 0.2 ppm, 50 hours culture): 6.9e+09 mL⁻¹ | Sporulation rate ([2]; 0.2 ppm, 50 hours culture): 100% | Bacterial cell concentration ([2]; 0.2 ppm, 50 hours culture): 6.9e+09 mL⁻¹ | Surfactin concentration ([3]; 0.1 ppm and 0.2 ppm): tended to increase | Surfactin concentration ([3]; 0.1 ppm, 50 hours culture, in the culture medium): 58.5 ppm | Surfactin concentration ([3]; 0.2 ppm, 50 hours culture, in the culture medium): 75.7 ppm | effect of inhibiting sporulation ([4]; 0.1 ppm): not observed | Spore concentration [4, 5]: 2.8e+09 mL⁻¹ | Sporulation rate [4, 5]: 80% | Bacterial cell concentration ([4]; 0.1 ppm added, 64 hours culture, carbon content 9.1 g/L): 3.5e+09 mL⁻¹ | effect of inhibiting sporulation ([4]; 1 ppm): observed | Bacterial cell concentration [4, 6]: 6.2e+09 mL⁻¹ | Sporulation rate [4, 6]: 0% | bacterial cell concentrations as the concentration of the substance increased ([4]; trend over tested concentrations): tended to increase
